Laboratory results taken from PubChem BioAssay AID2060894 (Molecular Pharmacology Branch, DTP, NCI, 2025).
Values belong to the compound of their own block, whether it stands above or below them.

Tested on: K12877-001-R-J1-PDC complex spheroid viability
Assay: Anticancer human tumor K12877-001-R-J1-PDC patient-derived lung adenocarcinoma cell line growth inhibition [RAS]
Conditions: for IC50: curve of first compound; for viability, T/C: stronger effect = lower value
Excerpt: RAS pathway inhibitors in Combinations in Complex Spheroids
A high-throughput screen of multi-cell type tumor spheroids was designed to identify active combinations of RAS pathway inhibitors and targeted small molecules. Complex spheroids include a stromal component modeled by human endothelial cells (HUVEC) and fibroblasts modeled by human mesenchymal stem cells (MSCs). The concentration ranges selected for each drug and investigational agent were based upon clinically achievable concentrations if the clinical Cmax of the agent was known.
Compounds. The drugs and investigational agents: abemaciclib (NSC768073), cobimetinib (NSC768068), divarasib (GDC6063, NSC841802), docetaxel (NSC628503), GDC-1971 (RLY-1971, NSC841576), gemcitabine (NSC613327), inavolisib (NSC800729), ipatasertib (NSC767898), KB-0742 (NSC834161), MRTX-1133 (NSC836407), osimertinib (NSC779217), RMC-4630 (NSC839698), RMC-6236 (NSC851965), RMC-6291 (NSC852671), Ro-3306 (NSC812927), sapanisertib (NSC764658), SN-38 (NSC673596), staurosporine (NSC755774), SY5609 (NSC837396), and tovorafenib (DAY101, NSC766906), were obtained from the National Cancer Institute (NCI) Developmental Therapeutics Program Chemical Repository. The FDA-approved anticancer drug set is available from the NCI Developmental Therapeutics Program. […] The stock solutions were prepared in dimethyl sulfoxide (DMSO, Sigma-Aldrich, St. Louis, MO, cat. D2650) at 800-fold the tested concentration and stored at -70 degrees C prior to their use. All drugs and investigational agents were tested over a range starting from a high concentration at or near the clinical Cmax and decreasing in half-log increments. If the clinical Cmax for an agent had not been determined, the highest concentration tested was 10 microM.
Cell Culture. All cells were maintained in an incubator at 37 degrees C and 5% CO2 with 95% humidity. The PDC lines were cultured according to standard operating procedures established by the NCI PDMR. All PDCs were thawed and cultured in Matrigel-coated flasks prepared with a working solution of 1X Ham's F-12 nutrient mix, without supplementation (Invitrogen, Waltham, MA, cat. 11765054), 100 U/mL penicillin-streptomycin (Invitrogen, cat. 15140122), and 2.5% Matrigel (Corning Inc., Corning, NY, cat. 354248) for the first three passages. The 362531-283-R-J2-PDC and 782815-120-R-J1-PDC lines were cultured in 6C/Colon 1B media, which includes advanced DMEM/F-12 (Thermo Fisher Scientific, cat. 12634028), 10 mM HEPES (Thermo Fisher Scientific, cat. 15630080), 1X GlutaMAX supplement (Thermo Fisher Scientific, cat. 35050061), 0.1 mg/mL primocin (InvivoGen, San Diego, CA, cat. ant-pm-2), 10% defined fetal bovine serum, heat inactivated (HyClone Laboratories Inc., Logan, UT, cat. SH30070.03HI), 50% L-WRN conditioned media (ATCC, cat. CRL-3276), 1.25 mM N-Acetyl-L-cysteine (Sigma-Aldrich, cat. A9165), 10 mM nicotinamide (Sigma-Aldrich, cat. N0636), 1X B-27 supplement (Thermo Fisher Scientific, cat. 17504044), 1X N-2 supplement (Thermo Fisher Scientific, cat. 17502048), 50 ng/mL human EGF (Thermo Fisher Scientific, cat. PHG0311), and 10 microM Y-27632 dihydrochloride (Tocris Bioscience, cat. 1254). The K12877-001-R-J1-PDC line was cultured in 6I media, which includes all 6C/Colon 1B media plus 10 ng/mL human FGF-10 (PeproTech, cat. 100-26), 1 ng/mL human FGF-2 (PeproTech, cat. 100-18B), 1 µM prostaglandin E2 (Tocris Bioscience, cat. 2296), […] hydrocortisone (Sigma-Aldrich, cat. H4001), and […] bovine insulin (Sigma-Aldrich, cat. I6634). The K86415-001-R-J1-PDC line was cultured in 6D media, which includes all 6C/Colon 1B media components minus the L-WRN conditioned media. The 485176-168-R4-J1-PDC was cultured in PANC media, which includes all 6C/Colon 1B media plus 100 ng/mL human FGF-10 (PeproTech, cat. 100-26), 500 nM SB-431542 (Selleckchem, cat. S1067), and 10 nM gastrin (Tocris Bioscience, cat. 3006). […]
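Note: spheroids exposed to agents for one week before readout.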

- IC50 (second compound 0.0316 µM): < 31.6 nM
- IC50 (second compound 0.1 µM): < 31.6 nM
- IC50 (second compound 0.316 µM): < 31.6 nM
- IC50 (second compound 1 µM): < 31.6 nM
- IC50 (second compound 3.16 µM): < 31.6 nM
- IC50 (second compound 10 µM): < 31.6 nM
SMILES: CC(=O)OC12COC1CC(O)C1(C)C(=O)C(O)C3=C(C)C(OC(=O)C(O)C(NC(=O)OC(C)(C)C)c4ccccc4)CC(O)(C(OC(=O)c4ccccc4)C21)C3(C)C (centres undefined) + C#Cc1c(F)ccc2cc(O)cc(-c3ncc4c(N5CC6CCC(C5)N6)nc(OCC56CCCN5CC(F)C6)nc4c3F)c12
- viability, T/C (second compound 0.0316 µM, first compound 0.0316 µM): 8.75%
- viability, T/C (second compound 0.0316 µM, first compound 0.1 µM): 6.43%
- viability, T/C (second compound 0.0316 µM, first compound 0.316 µM): 6.63%
- viability, T/C (second compound 0.0316 µM, first compound 1 µM): 5.48%
- viability, T/C (second compound 0.0316 µM, first compound 3.16 µM): 7.34%
- viability, T/C (second compound 0.0316 µM, first compound 10 µM): 14.9%
- viability, T/C (second compound 0.1 µM, first compound 0.0316 µM): 8.48%
- viability, T/C (second compound 0.1 µM, first compound 0.1 µM): 6.66%
- viability, T/C (second compound 0.1 µM, first compound 0.316 µM): 4.24%
- viability, T/C (second compound 0.1 µM, first compound 1 µM): 5.34%
- viability, T/C (second compound 0.1 µM, first compound 3.16 µM): 6.17%
- viability, T/C (second compound 0.1 µM, first compound 10 µM): 16%
- viability, T/C (second compound 0.316 µM, first compound 0.0316 µM): 9.56%
- viability, T/C (second compound 0.316 µM, first compound 0.1 µM): 6.37%
- viability, T/C (second compound 0.316 µM, first compound 0.316 µM): 5.39%
- viability, T/C (second compound 0.316 µM, first compound 1 µM): 5.34%
- viability, T/C (second compound 0.316 µM, first compound 3.16 µM): 6.63%
- viability, T/C (second compound 0.316 µM, first compound 10 µM): 17.3%
- viability, T/C (second compound 1 µM, first compound 0.0316 µM): 8.81%
- viability, T/C (second compound 1 µM, first compound 0.1 µM): 6.46%
- viability, T/C (second compound 1 µM, first compound 0.316 µM): 6.04%
- viability, T/C (second compound 1 µM, first compound 1 µM): 5.11%
- viability, T/C (second compound 1 µM, first compound 3.16 µM): 7.06%
- viability, T/C (second compound 1 µM, first compound 10 µM): 18.1%
- viability, T/C (second compound 3.16 µM, first compound 0.0316 µM): 7.54%
- viability, T/C (second compound 3.16 µM, first compound 0.1 µM): 5.83%
- viability, T/C (second compound 3.16 µM, first compound 0.316 µM): 4.07%
- viability, T/C (second compound 3.16 µM, first compound 1 µM): 4.99%
- viability, T/C (second compound 3.16 µM, first compound 3.16 µM): 6.13%
- viability, T/C (second compound 3.16 µM, first compound 10 µM): 15.7%
- viability, T/C (second compound 10 µM, first compound 0.0316 µM): 5.58%
- viability, T/C (second compound 10 µM, first compound 0.1 µM): 3.71%
- viability, T/C (second compound 10 µM, first compound 0.316 µM): 4.04%
- viability, T/C (second compound 10 µM, first compound 1 µM): 4.11%
- viability, T/C (second compound 10 µM, first compound 3.16 µM): 5.73%
- viability, T/C (second compound 10 µM, first compound 10 µM): 15.2%

- IC50 (second compound 0.0316 µM): 4.79 nM
- IC50 (second compound 0.1 µM): 5.39 nM
- IC50 (second compound 0.316 µM): 5.3 nM
- IC50 (second compound 1 µM): 5.51 nM
- IC50 (second compound 3.16 µM): 5.35 nM
- IC50 (second compound 10 µM): 4.74 nM
SMILES: CCc1c2c(nc3ccc(O)cc13)-c1cc3c(c(=O)n1C2)COC(=O)[C@]3(O)CC + C#Cc1c(F)ccc2cc(O)cc(-c3ncc4c(N5CC6CCC(C5)N6)nc(OCC56CCCN5CC(F)C6)nc4c3F)c12
- viability, T/C (second compound 0.0316 µM, first compound 0.000949 µM): 109%
- viability, T/C (second compound 0.0316 µM, first compound 0.003 µM): 77.1%
- viability, T/C (second compound 0.0316 µM, first compound 0.00949 µM): 10.3%
- viability, T/C (second compound 0.0316 µM, first compound 0.03 µM): 4.77%
- viability, T/C (second compound 0.0316 µM, first compound 0.0949 µM): 2.24%
- viability, T/C (second compound 0.0316 µM, first compound 0.3 µM): 0.94%
- viability, T/C (second compound 0.1 µM, first compound 0.000949 µM): 107%
- viability, T/C (second compound 0.1 µM, first compound 0.003 µM): 89%
- viability, T/C (second compound 0.1 µM, first compound 0.00949 µM): 12.3%
- viability, T/C (second compound 0.1 µM, first compound 0.03 µM): 4.96%
- viability, T/C (second compound 0.1 µM, first compound 0.0949 µM): 2.8%
- viability, T/C (second compound 0.1 µM, first compound 0.3 µM): 1.27%
- viability, T/C (second compound 0.316 µM, first compound 0.000949 µM): 89.3%
- viability, T/C (second compound 0.316 µM, first compound 0.003 µM): 87.6%
- viability, T/C (second compound 0.316 µM, first compound 0.00949 µM): 11.5%
- viability, T/C (second compound 0.316 µM, first compound 0.03 µM): 4.86%
- viability, T/C (second compound 0.316 µM, first compound 0.0949 µM): 2.49%
- viability, T/C (second compound 0.316 µM, first compound 0.3 µM): 1.48%
- viability, T/C (second compound 1 µM, first compound 0.000949 µM): 86.5%
- viability, T/C (second compound 1 µM, first compound 0.003 µM): 99.4%
- viability, T/C (second compound 1 µM, first compound 0.00949 µM): 11.7%
- viability, T/C (second compound 1 µM, first compound 0.03 µM): 9.22%
- viability, T/C (second compound 1 µM, first compound 0.0949 µM): 2.66%
- viability, T/C (second compound 1 µM, first compound 0.3 µM): 1.23%
- viability, T/C (second compound 3.16 µM, first compound 0.000949 µM): 95%
- viability, T/C (second compound 3.16 µM, first compound 0.003 µM): 85.9%
- viability, T/C (second compound 3.16 µM, first compound 0.00949 µM): 14.4%
- viability, T/C (second compound 3.16 µM, first compound 0.03 µM): 7.59%
- viability, T/C (second compound 3.16 µM, first compound 0.0949 µM): 3.16%
- viability, T/C (second compound 3.16 µM, first compound 0.3 µM): 2.37%
- viability, T/C (second compound 10 µM, first compound 0.000949 µM): 82.9%
- viability, T/C (second compound 10 µM, first compound 0.003 µM): 75.4%
- viability, T/C (second compound 10 µM, first compound 0.00949 µM): 11.4%
- viability, T/C (second compound 10 µM, first compound 0.03 µM): 5.12%
- viability, T/C (second compound 10 µM, first compound 0.0949 µM): 4.3%
- viability, T/C (second compound 10 µM, first compound 0.3 µM): 1.89%
